Patent US10570179B2, “Substituted urea depsipeptide analogs as activators of the CLPP endopeptidase” (priority 2016, dated 2020)
Converted amounts (≈) assume the structure as drawn. Like-named read-outs stand apart in the source and are kept apart here. Numbered stars: 1 amine (or outer) side, 2 acyl side, 3 side chain; on linkers, the order of the positions; unused ones are H or OH. Bridge positions count the residues as written; N and C are the ends. Square brackets hold non-standard residues; d marks the D form. Peptide text beside a SMILES is read from it. * marks the point of attachment. X5 = O=C([C@@H]1C[C@@H](OP(=O)(O)O)CN1[*:1])[*:2]; Phe(3-Me) = Cc1cccc(C[C@H](N)C(=O)O)c1; NH(4-Cl-2-F-phenyl) = Fc1cc(Cl)ccc1N*; Pro(4R-Me) = C[C@H]1CN[C@H](C(=O)O)C1; Hyp = O=C(O)[C@@H]1C[C@@H](O)CN1; NH(4-Et-phenyl) = CCc1ccc(N*)cc1; aThr = C[C@H](O)[C@H](N)C(=O)O; Pip = O=C(O)[C@@H]1CCCCN1; CO = O=C([*:1])[*:2]

Assays:
[1] = Plasma stability assay; type: in vitro ADME, mouse
How it was run: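 Compounds at 10 μM final in human or mouse plasma, incubated at 37 °C and sampled at 0, 3, 24 and 48 h in triplicate. Reactions quenched with cold acetonitrile containing warfarin internal standard; parent measured by LC-MS. Half-life from least-squares first-order fit.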

[2] = molecular target: T1, S. aureus ClpP (Sa-ClpP) (Staphylococcus aureus, UniProt Q2G036); test: Casein-BODIPY digestion assay (ClpP activation); type: biochemical
T1 construct: made in house; host or cells: E. coli BL21 (DE3)
T1 sequence (Q2G036 whole entry): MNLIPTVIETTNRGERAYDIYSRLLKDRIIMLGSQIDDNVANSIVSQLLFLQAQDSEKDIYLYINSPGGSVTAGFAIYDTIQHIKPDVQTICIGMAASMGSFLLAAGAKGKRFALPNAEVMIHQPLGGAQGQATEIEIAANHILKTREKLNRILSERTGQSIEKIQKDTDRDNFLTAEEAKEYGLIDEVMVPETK

[3] = tested on: S. aureus USA 300; test: Minimal inhibitory concentration, microbroth dilution; type: cell-based; conditions: Staphylococcus aureus
How it was run: (§1)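 MICs were determined by CLSI broth microdilution, using two-fold compound dilutions from a final 200 μM and about 10^5 cfu/mL inoculum. Plates were incubated aerobically at 37 °C overnight. The MIC was read visually as the lowest concentration preventing growth.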

[4] = tested on: S. aureus ATCC 29213; test: as above; type: cell-based; conditions: Staphylococcus aureus
How it was run: as §1

[5] = tested on: E. faecails; test: as above; type: cell-based; conditions: Enterococcus faecalis
How it was run: as §1

[6] = tested on: MRSA NRS70; test: as above; type: cell-based; conditions: Staphylococcus aureus
How it was run: as §1

[7] = USA300, MIC, read-out: Minimal Inhibitory Concentrations (μM) S. aureus USA 300
[8] = ATCC29213, MIC, read-out: Minimal Inhibitory Concentrations (μM) S. aureus ATCC 29213
[9] = MIC, read-out: Minimal Inhibitory Concentrations (μM) E. faecails
[10] = MIC, read-out: Minimal Inhibitory Concentrations (μM) MRSA NRS70

Row | Structure (SMILES) | Mouse ([1]; mouse, 10 μM) [h] | EC50 [2] [nM] | MIC [3, 7] [µM] | MIC [4, 8] [µM] | MIC [5, 9] [µM] | MIC [6, 10] [µM] | Mouse ([1]; plasma stability half-life, mouse plasma, 37° C.) [h] | MIC ([3]; USA300, read-out: Minimal Inhibitory Concentrations (μM) S. aureus USA 300, MIC) [µM] | MIC ([4]; ATCC29213, read-out: Minimal Inhibitory Concentrations (μM) S. aureus ATCC 29213, MIC) [µM] | MIC ([5]; read-out: Minimal Inhibitory Concentrations (μM) E. faecails, MIC) [µM] | MIC ([6]; read-out: Minimal Inhibitory Concentrations (μM) MRSA NRS70, MIC) [µM]
1 | Cc1cccc(C[C@H](NC(=O)Nc2ccc(Cl)cc2F)C(=O)N[C@H]2COC(=O)[C@@H]3C[C@@H](C)CN3C(=O)[C@H](C)NC(=O)[C@@H]3CCCCN3C(=O)[C@@H]3CCCN3C2=O)c1 [Compound 8, (S)-2-(3-(4-CHLORO-2-FLUOROPHENYL)UREIDO)-N-((2R,6S,8AS,14AS,20S,23AS)-2,6-DIMETHYL-5,8,14,19,23-PENTAOXOOCTADECAHYDRO-1H,5H,14H,19H-PYRIDO[2,1-I]DIPYRROLO[2,1-C:2′,1′-L][1]OXA[4,7,10,13]TETRAAZACYCLOHEXADECIN-20-YL)-3-(M-TOLYL)PROPANAMIDE] | >50 | 280 ± 20 | 0.313 (≈ 0.254 µg/mL) | 0.625 (≈ 0.506 µg/mL) | 0.156 (≈ 0.126 µg/mL) | 0.156 (≈ 0.126 µg/mL) |  |  |  |  | 
2 | Cc1cccc(C[C@H](NC(=O)Nc2ccc(Cl)cc2F)C(=O)N[C@@H]2C(=O)N3C[C@H](OP(=O)(O)O)C[C@H]3C(=O)N3CCCC[C@H]3C(=O)N[C@@H](C)C(=O)N3C[C@H](C)C[C@H]3C(=O)O[C@H]2C)c1 [Compound 29, (2R,6S,8AS,14AS,16R,20S,21S,23AS)-20-((S)-2-(3-(4-CHLORO-2-FLUOROPHENYL)UREIDO)-3-(M-TOLYL)PROPANAMIDO)-2,6,21-TRIMETHYL-5,8,14,19,23-PENTAOXOOCTADECAHYDRO-1H,5H,14H,19H-PYRIDO[2,1-I]DIPYRROLO[2,1-C:2′,1′-L][1]OXA[4,7,10,13]TETRAAZACYCLOHEXADECIN-16-YL DIHYDROGEN PHOSPHATE] ({NH(4-Cl-2-F-phenyl)-CO}-[Phe(3-Me)][aThr][X5][Pip]A[Pro(4R-Me)]; ester 2-C) |  | 240 ± 240 |  |  |  |  | 102.25 | 10 | 5 | 20 | 2.5
3 | Cc1cccc(C[C@H](NC(=O)Nc2ccc(Cl)cc2F)C(=O)N[C@H]2COC(=O)[C@@H]3C[C@@H](C)CN3C(=O)[C@H](C)NC(=O)[C@@H]3CCCCN3C(=O)[C@@H]3C[C@@H](O)CN3C2=O)c1 [Compound 10] | >50 | 380 ± 30 | 0.313 (≈ 0.259 µg/mL) | 0.313 (≈ 0.259 µg/mL) | 0.313 (≈ 0.259 µg/mL) | 0.313 (≈ 0.259 µg/mL) |  |  |  |  | 
4 | Cc1cccc(C[C@H](NC(=O)Nc2ccc(Cl)cc2F)C(=O)N[C@@H]2C(=O)N3C[C@H](O)C[C@H]3C(=O)N3CCCC[C@H]3C(=O)N[C@@H](C)C(=O)N3C[C@H](C)C[C@H]3C(=O)O[C@H]2C)c1 [Compound 6, (S)-2-(3-(4-CHLORO-2-FLUOROPHENYL)UREIDO)-N-((2R,6S,8AS,14AS,16R,20S,21S,23AS)-16-HYDROXY-2,6,21-TRIMETHYL-5,8,14,19,23-PENTAOXOOCTADECAHYDRO-1H,5H,14H,19H-PYRIDO[2,1-I]DIPYRROLO[2,1-C:2′,1′-L][1]OXA[4,7,10,13]TETRAAZACYCLOHEXADECIN-20-YL)-3-(M-TOLYL)PROPANAMIDE] ({NH(4-Cl-2-F-phenyl)-CO}-[Phe(3-Me)][aThr][Hyp][Pip]A[Pro(4R-Me)]; ester 2-C) | >50 | 230 ± 20 | 0.156 (≈ 0.131 µg/mL) | 0.078 (≈ 0.0655 µg/mL) | 0.078 (≈ 0.0655 µg/mL) | 0.078 (≈ 0.0655 µg/mL) |  |  |  |  | 
5 | CCc1ccc(NC(=O)N[C@@H](Cc2cccc(C)c2)C(=O)N[C@@H]2C(=O)N3C[C@H](O)C[C@H]3C(=O)N3CCCC[C@H]3C(=O)N[C@@H](C)C(=O)N3C[C@H](C)C[C@H]3C(=O)O[C@H]2C)cc1 [Compound 25, (S)-2-(3-(4-ETHYLPHENYL)UREIDO)-N-((2R,6S,8AS,14AS,16R,20S,21S,23AS)-16-HYDROXY-2,6,21-TRIMETHYL-5,8,14,19,23-PENTAOXOOCTADECAHYDRO-1H,5H,14H,19H-PYRIDO[2,1-I]DIPYRROLO[2,1-C:2′,1′-L][1]OXA[4,7,10,13]TETRAAZACYCLOHEXADECIN-20-YL)-3-(M-TOLYL)PROPANAMIDE] ({NH(4-Et-phenyl)-CO}-[Phe(3-Me)][aThr][Hyp][Pip]A[Pro(4R-Me)]; ester 2-C) | >50 | 410 ± 20 | 0.313 (≈ 0.255 µg/mL) | 0.156 (≈ 0.127 µg/mL) | 0.156 (≈ 0.127 µg/mL) | 0.156 (≈ 0.127 µg/mL) |  |  |  |  | 
